The record followed here is US20240124520A1, “N-ACYLATED HISTIDINE DIPEPTIDES AS ANTICANCER AGENTS” (THE BOARD OF TRUSTEES OF THE LELAND STANFORD JUNIOR …, priority 2019, published 2024).

Non-standard residues stand in square brackets, D forms with d. Residues, ends and D or L forms follow the SMILES beside them. *: point of attachment. Palmitoyl = CCCCCCCCCCCCCCCC(=O)*

For the test, the system named is MDA-MB-231 triple-negative human breast cancer cells. The test is described as follows: Cell Titer Blue in vitro cell viability assay, MDA-MB-231. It counts as cell-based. As to conditions: MDA-MB-231 (DMEM); for IC50: MDA-MB-231, 72 h, 3 days at 37° C. The protocol: FIG. 1: Dose Response curve for MBC017 with MDA-MB-231 cells. Compound MBC017 was incubated with MDA-MB-231 triple-negative human breast cancer cells at the indicated concentrations for 3 days at 37° C. prior to Cell Titer Blue fluorescence-based cell viability assay. Normalized cell viability data, expressed as a percentage, are averaged from three biological replicates and standard error represented by error bars for each averaged data point (empty squares). The compound concentrations are represented on log scale on the x-axis in μM units. Data were analyzed using free software called DrFit, as described in Nature Scientific Reports, Article number: 14701, (2015). […] The data were not sufficient to calculate an accurate IC50 value.
A commercially available in vitro cell viability reagent (Cell Titer Blue) was employed to determine the anti-cancer effectiveness of several compounds (1-5) against multiple cancer and healthy tissue-derived cell lines. Cell lines are summarized in Table 2, as follows: All cell lines and information on each cell lines origins and characteristics were procured from ATCC (www.atcc.org). Common names and ATCC product IDs are shown in the first (leftmost) column. From the left, the second and third columns describe the organism and tissue from which each cell line was isolated. The fourth and fifth columns indicate the cell type and disease status (e.g. normal versus carcinoma) of each cell line. The sixth column provides a summary of what compounds were tested against each cell line using an in vitro cell viability assay. Peptide name IDs are shown in parenthesis for each compound, numbered 1 through 5.
The Cell Titer Blue reagent (available from Promega, Inc.) is a buffered solution containing resazurin, a compound that is converted to resorufin, a detectable fluorescent product, by metabolically active cells. The fluorescence intensity of resorufin product therefore serves as a proportional measure of the number of viable cells, permitting changes in cell viability within cancer or other cell lines to be monitored in response to the addition of cytotoxic or cytostatic agents. Various human breast tissue-derived cell lines are widely employed to study the effects of potential therapeutics against breast cancer in vitro. Human breast cancer cell lines may be subdivided into groups based upon hormone receptor status, i.e. estrogen, progesterone and human epidermal growth factor positive or negative. A healthy human breast tissue-derived cell line, hTERT-HME1 may be used to determine the effect of therapeutic agents on healthy human breast tissue in vitro. Additionally, a highly metastatic and aggressive murine (mouse) breast cancer cell line, 4T1, has been extensively used to monitor breast cancer metastasis from the mammary fat pads of mice to the lungs in order to systematically survey the anti-metastatic effectiveness of anti-cancer therapeutics in an in vivo animal model. Metastases to the lungs may be conveniently quantified by a well-established clonogenic assay. Other human tissue-derived model cell lines, representative of various cancers, other than breast cancer, may be utilized to assess the potential of anti-cancer compounds in vitro. These include, K-562 (chronic myelogenous leukemia), HEPG2 (hepatocellular carcinoma), OVCAR-3 (ovarian adenocarcinoma), SK—N—SH (neuroblastoma) and A549 (lung carcinoma). Several compounds were assayed in vitro using the Cell Titer Blue viability assay against an array of cancer cell lines of both human and murine origin plus one healthy human breast cell line (Table 1, FIGS. 1-16). A mouse 4T1 metastasis study was performed to determine the anti-metastatic potential of one compound, MBC0179 (FIG. 17).
Dimethyl sulfoxide (DMSO), Cremophor EL, methylene blue, 100× antibiotic/antimycotic solution, collagenase (Type IV), DNAse I and 6-thioguanine were available from Millipore-Sigma. […]
In general terms: Alamar Blue is a resazurin reagent that responds to reducing activity.

In the case of `CCCCCCCCCCCCCCCC(=O)N[C@@H](Cc1c[nH]cn1)C(=O)N[C@H](C(=O)O)C(C)C` [Compound 1, N-[N-(1-oxohexadecyl)-L-histidyl]-L-valine] (Palmitoyl-His-Val-OH), where the note is “72 h, 125 μM, relative to vehicle, 3 days of incubation, read-out: reduction in viability”, the cytotoxicity at 125 µM was approximately 40%.

As usually defined, the IC50 is the point on the concentration scale where inhibition reaches its midpoint. On to `CCCCCCCCCCCCCCCC(=O)N[C@@H](Cc1c[nH]cn1)C(=O)N[C@H](C(=O)O)[C@@H](C)CC` [Compound 2, N-[N-(1-oxohexadecyl)-L-histidyl]-L-isoleucine] (Palmitoyl-His-Ile-OH), for which the IC50 turned out to be 6730 µM.

Compound `CCCCCCCCCCCCCCCC(=O)N[C@@H](Cc1c[nH]cn1)C(=O)N[C@H](C(=O)OCC)C(C)C` [Compound 3, N-[N-(1-oxohexadecyl)-L-histidyl]-L-valine ethyl ester] (Palmitoyl-His-Val-OEt) displayed a half-maximal inhibitory concentration (IC50) of 13.1 µM.

The compound `CCCCCCCCCCCCCCCC(=O)N[C@H](Cc1c[nH]cn1)C(=O)N[C@@H](C(=O)O)C(C)C` [Compound 4, N-[N-(1-oxohexadecyl)-D-histidyl]-D-valine] (Palmitoyl-[dH]-[dV]-OH) returned a half-inhibitory concentration (IC50) of 62.1 µM.
